Here are results for 1 substance from US20030191088A1, “Novel therapeutic agents interfering in neutrophil migration” (priority 1998, published 2003).

One data set concerns neutrophils. The conditions noted are these: cited from earlier work.
In data set [1] the test system is neutrophil migration (chemotaxis) towards IL-8. The following applies: in vitro, GXM added directly to the leukocytes; cited from earlier work.
The test system of a further data set is pneumococcal meningitis. Briefly: pneumococcal meningitis model in rabbits, intravenous GXM. Type of data set: in vivo.
Another data set concerns neutrophil L-selectin. The following applies: cited from earlier work.
In data set [2] the target is CD18 (β subunit of LFA-1) (Homo sapiens, UniProt P05107). The conditions noted are these: cited from earlier work.
Chain of CD18 (β subunit of LFA-1) (P05107 23-769): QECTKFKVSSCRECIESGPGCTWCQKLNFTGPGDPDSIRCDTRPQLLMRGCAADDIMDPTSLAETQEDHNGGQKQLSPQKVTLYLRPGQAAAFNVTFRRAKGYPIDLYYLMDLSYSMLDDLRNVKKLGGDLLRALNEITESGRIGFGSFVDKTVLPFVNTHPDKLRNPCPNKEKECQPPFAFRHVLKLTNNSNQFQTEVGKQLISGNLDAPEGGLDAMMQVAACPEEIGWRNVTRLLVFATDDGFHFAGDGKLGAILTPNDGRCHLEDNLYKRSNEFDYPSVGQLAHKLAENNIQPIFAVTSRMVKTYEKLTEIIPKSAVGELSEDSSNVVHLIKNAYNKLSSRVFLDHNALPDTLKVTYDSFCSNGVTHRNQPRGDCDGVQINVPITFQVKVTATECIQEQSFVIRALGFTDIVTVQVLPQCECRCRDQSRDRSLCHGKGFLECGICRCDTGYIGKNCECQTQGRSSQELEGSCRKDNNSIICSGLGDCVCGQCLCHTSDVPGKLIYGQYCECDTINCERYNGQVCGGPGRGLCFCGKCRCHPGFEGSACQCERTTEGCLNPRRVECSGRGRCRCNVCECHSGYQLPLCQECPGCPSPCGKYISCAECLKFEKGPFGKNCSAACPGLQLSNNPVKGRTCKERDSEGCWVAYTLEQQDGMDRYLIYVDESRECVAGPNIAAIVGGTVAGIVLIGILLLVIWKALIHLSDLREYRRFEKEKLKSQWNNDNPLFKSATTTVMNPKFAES
The next data set relates to healthy rabbits. Kind of data set: Animal toxicity of intravenous GXM in healthy rabbits. The class given is in vivo. The conditions noted are these: intravenous administration, doses ranging from 0.5 to 50 mg. An excerpt:
In experiments, it was investigated whether GXM is toxic in healthy animals.

For data set [3] the following is noted: purified form; cited from earlier work.
The mark [4] stands for this setting: pneumococcal meningitis rabbit model, i.v. administration.
Where [5] appears, read: rabbits, intravenous administration, in comparison to control rabbits.

For the substance glucuronoxylomannan [GXM], the attraction of neutrophils result in the data set on neutrophils is given as “attract neutrophils itself”. The “interference with neutrophil migration (chemotaxis) towards IL-8” value in data set [1] is “interferes with neutrophil migration (chemotaxis) towards IL-8”. Moreover, the “toxicity and tolerability in the pneumococcal meningitis rabbit model” value in the data set with pneumococcal meningitis (i.v. administration) is “non-toxic and well tolerated”. In addition, in the data set on pneumococcal meningitis (setting [4]), the “GXM in CSF” value is “detectable” and the brain toxicity entry was “No demonstrable brain toxicity”. Moreover, in the data set with pneumococcal meningitis (setting [5]), the “TNF-α levels in the CSF” value is “reduces TNF-α levels in the CSF”; the “entry of leukocytes (PMN) into the CSF and brain” value was “delays entry of leukocytes (PMN) into the CSF and brain”; the “protection of the brain against damage” value is recorded as “protects the brains of these rabbits against damage”. Moreover, in the data set on neutrophil L-selectin, the “shedding of neutrophil L-selectin” value is “can induce shedding of neutrophil L-selectin”. Also, in data set [2], the “binding to CD18” value is given as “can bind to CD18”. In the data set with healthy rabbits, the “tolerability in healthy rabbits” value is on record as “tolerated”. In addition, the immunogenicity result in data set [3] is recorded as “poorly immunogenic”.
